Measurements: US20260167627A1, “NEW SOLID FORMS OF (3R)-N-[2-CYANO-4-FLUORO-3-(3-METHYL-4-OXO-QUINAZOLIN-6-YL)OXY-PHENYL]-3-FLUORO-PYRROLIDINE-1-SULFONAMIDE” (Hoffmann-La Roche Inc., priority 2023, published 2026)

Key:
[1] = cited from earlier work
[2] = Thermodynamic stability of the solid form; format: physicochemical
[3] = Thermogravimetric analysis (TGA); format: physicochemical; conditions: heating rate 5 K/min under nitrogen, FIG. 3
Description: Thermogravimetric analyses (TGA) were performed on a Mettler-Toledo™ thermogravimetric analyzer (TGA/DSC1 or TGA/DSC3+). System suitability tests were performed with Hydranal as reference substance and calibrations using Aluminum and Indium as reference substances. For the thermogravimetric analyses, approx. 5 to 15 mg (about 7.197 mg of Form B) of sample were placed in aluminum pans, accurately weighed and hermetically closed with perforation lids. Prior to measurement, the lids were automatically pierced resulting in approx. 0.5 mm pin holes. The samples were then heated under a flow of nitrogen of about 50 mL/min using a heating rate of 5 K/min to a maximum temperature of typically 350° C.

[4] = Moisture sorption/desorption (DVS), hygroscopicity; format: physicochemical
Description: Moisture sorption/desorption data was collected on a DVS Advantage, a DVS Adventure, or a DVS Intrinsic (SMS Surface Measurements Systems) moisture balance system. The sorption/desorption isotherms were measured stepwise in a range from 0%-RH to 90%-RH at typically 25° C. A weight change of typically <0.001%/min was chosen as criterion to switch to the next level of relative humidity (with a maximum equilibration time of typically 24 hours, if the weight change criterion was not met). The data were corrected for the initial moisture content of the samples by taking the weight after drying of the samples at 0%-RH as zero point.
The hygroscopicity of a given substance was characterized (by close analogy with the European Pharmacopoeia) by the increase in mass when the relative humidity was raised from 0%-RH to 90%-RH:
European Pharmacopoeia-8″ Edition (2014), Chapter 5.11.

Compound	brain permeability [1]	thermodynamic stability of solid form [2]	mass loss (TGA) [3]	water uptake according to European Pharmacopeia ([4]; 0%-RH to 90%-RH)	hygroscopicity class ([4]; relative humidity raised from 0%-RH to 90%-RH, typically 25° C.)
CC(C)(C)c1nc(-c2cccc(NS(=O)(=O)c3c(F)cccc3F)c2F)c(-c2ccnc(N)n2)s1 [Dabrafenib]	very poor				
COC(=O)N[C@@H](C)CNc1nccc(-c2cn(C(C)C)nc2-c2cc(Cl)cc(NS(C)(=O)=O)c2F)n1 [Encorafenib]	very poor				
Cn1cnc2ccc(Oc3c(F)ccc(NS(=O)(=O)N4CC[C@@H](F)C4)c3C#N)cc2c1=O [Form B, (3R)—N-[2-cyano-4-fluoro-3-(3-methyl-4-oxo-quinazolin-6-yl)oxy-phenyl]-3-fluoro-pyrrolidine-1-sulfonamide]		thermodynamically stable form	0.087%	< 0.2%	non-hygroscopic (weight increase Dm < 0.2%)
CCCS(=O)(=O)Nc1ccc(F)c(C(=O)c2c[nH]c3ncc(-c4ccc(Cl)cc4)cc23)c1F [Vemurafenib]	very poor				
